Reference: patent publication US20140017187A1, “Use of 5-(7-methoxy-3,3-dimethyl-2,3-dihydro-1-benzoxepin-5-yl)-3-methyl-penta-2,4-dienoic acid as a cosmetic” (Merck Patent GmbH, priority 2008, published 2014)
“And” between values parts separate entries of the source, which are not always exact repeats. Equal entries are not always repeated.

Columns and labels:
[1] = test system: epidermal differentiation proteins; assay: In vitro expression of epidermal differentiation proteins; format: cell-based; details: own unpublished results
[2] = Skin sensitization test (in house data)
animal models [3] = assay: Toxicity studies in animal models (in house data); details: in vivo
[4] = Skin/eye irritation test (in house data)
B16-V melanoma cells = assay: Inhibition of melanin synthesis in B16-V melanoma cells (alpha-MSH stimulated); format: cell-based; details: 72 h, alpha-MSH stimulation
Experimental: DMSO is the solvent as negative and IBMX (3-Isobutyl-1-methylxantine) is our positive control. Kojic acid (KA) is the known reference ingredient for skin whitening.
B16-V melanoma cells were incubated for 72 h with assay medium containing different amounts of test substances. The concentration depends on the results of the MTT-Assay. Only concentrations without effect on viability (after 24 h incubation) were used for further melanin evaluation. Every 24 hours medium was changed and replaced by fresh assay medium containing the compounds and alpha-MSH (stimulation of melanin synthesis). The cell number was determined and the cells got lysed using 1M NaOH. Afterwards the amount of melanin was measured at 405 nm with a microplatereader (Safire2™, Tecan). Different concentrations of synthetic melanin were used to produce a calibration curve. Melanin content was expressed as pg/cell.

PPARγ = PPARγ luciferase reporter gene activation in CV1 cells expressing endogenous PPARγ; format: cell-based, green monkey; details: for Fold Activation PPAR gamma, MEAN: mean of the two experiments in triplicate; for Fold Activation PPAR gamma: single values of triplicates, two experiments, relative to control
Excerpt: (§1) Analysis of the activation of PPARα and PPARγ is based on the transfection of a DNA allowing the expression of a reporter gene (the gene of luciferase) under the control of the PPARs, either endogenous in the case of PPARγ or cotransfected in the case of PPARα. The reporter plasmid J3TkLuc comprises three copies of the response element for PPARs of the human apo A-II gene (Staels, B et al. (1995), J. Clin. Invest., 95, 705-712) which are cloned upstream of the promoter of the thymidine kinase gene of the herpes simplex virus in the plasmid pGL3. This reporter gene was obtained by subcloning, in the plasmid pGL3, the plasmid J3TkCAT described above (Fajas, L et al. (1997), J. Biol. Chem., 272, 18779-18789). […] These cells were inoculated at a density of 20,000 cells per well (96-well plates) and transfected with 150 ng of reporter DNA complexed with a mixture of lipids. In the case of the SK-Hep1 cells, an expression vector for PPARα, described by Sher, T. et al. (1993), Biochemistry, 32, 5598-5604, is cotransfected. After 5 hours, the cells are washed twice and incubated for 36 hours in the presence of the test compound in a fresh culture medium comprising 10% foetal calf serum. At the end of incubation, the cells are lysed and the luciferase activity is measured.

animal models [5] = details: in vivo
[6] = Mutagenicity studies (in house data)
PPARα = biological target: T1, PPARα (Homo sapiens, UniProt Q07869); assay: PPARα luciferase reporter gene activation in SK-Hep1 cells cotransfected with PPARα expression vector; format: cell-based; details: for Fold Activation PPAR alpha, MEAN: mean of the two experiments in triplicate; for Fold Activation PPAR alpha: single values of triplicates, two experiments, relative to control; for balance of stimulation of PPAR-alpha and -gamma receptors: both receptors activated in the same concentration range
T1 construct: expressed in transfected cells; host or cells: human SK-Hep1 cells
T1 sequence (Q07869 1-468): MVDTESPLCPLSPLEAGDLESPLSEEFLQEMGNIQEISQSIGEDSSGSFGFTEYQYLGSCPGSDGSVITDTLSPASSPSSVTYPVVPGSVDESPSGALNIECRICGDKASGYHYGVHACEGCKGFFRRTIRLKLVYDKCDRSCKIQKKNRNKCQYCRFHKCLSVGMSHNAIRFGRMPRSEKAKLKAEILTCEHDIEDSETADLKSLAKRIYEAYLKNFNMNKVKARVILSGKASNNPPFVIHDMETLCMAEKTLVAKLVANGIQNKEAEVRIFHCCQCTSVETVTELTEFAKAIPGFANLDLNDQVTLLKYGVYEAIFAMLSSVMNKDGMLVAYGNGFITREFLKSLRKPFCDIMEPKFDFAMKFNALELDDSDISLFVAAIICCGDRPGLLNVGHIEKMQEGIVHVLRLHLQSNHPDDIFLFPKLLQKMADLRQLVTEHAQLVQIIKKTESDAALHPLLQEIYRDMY
Excerpt: as §1

[7] = Phototoxic and photo-allergenic potential (in house data)
[8] = test system: subjects of skin type 3 or 4; assay: Double blind clinical trial of skin whitening activity on forearms, versus placebo formulation; format: in vivo, human; details: oil-in-water emulsion with 1.0% Compound vs placebo, forearm, twice a day, 4½ weeks
Experimental: Skin whitening activity was evaluated in a double blind clinical trial. As study medication a oil-in-water emulsion formulation containing 1.0% of the Compound, in comparison with the same formulation containing no active ingredient (placebo) was used.
The study was executed with subjects of skin type 3 or 4, aged from 18 to 50 years, whereby the active formulation was applied on one forearm twice a day and the placebo formulation on the other forearm for 4½ weeks. Assessment of whitening efficacy was performed on both forearms at day 0, 14 and 28 by visual assessment (examination of pigmentation differences), colorimetric measurements (using Chroma-Meter CR 300, Minolta resulting in L* values, expressing the changes in brightness, and ITA° values Individual Typology Angle expressing the melanin index) as well as digital photographs.

COc1ccc2c(c1)C(/C=C/C(C)=C/C(=O)O)=CC(C)(C)CO2 [Compound, 5-(7-methoxy-3,3-dimethyl-2,3-dihydro-1-benzoxepin-5-yl)-3-methyl-penta-2,4-dienoic acid]
expression of epidermal differentiation proteins [1]: increased expression | skin sensitization [2]: no skin sensitization | cell proliferation or apoptosis (animal models [3]): no indication | skin/eye irritation [4]: no skin/eye irritation | melanin inhibiting activity (melanin content pg/cell, FIG. 1) (B16-V melanoma cells): superb melanin inhibiting activity | melanin inhibiting activity compared with kojic acid (FIG. 1) (B16-V melanoma cells): significantly better than kojic acid | Fold Activation PPAR gamma, MEAN (PPARγ; 0.3 μm): 0.9 fold | Fold Activation PPAR gamma, MEAN (PPARγ; 1 μm): 1.0 fold | Fold Activation PPAR gamma (PPARγ; 1 μm): 0.8 fold and 1.2 fold and 0.9 fold and 1.0 fold and 1.3 fold | Fold Activation PPAR gamma, MEAN (PPARγ; 3 μm): 1.5 fold | Fold Activation PPAR gamma (PPARγ; 3 μm): 1.2 fold and 1.6 fold and 1.3 fold and 2.1 fold | Fold Activation PPAR gamma, MEAN (PPARγ; 10 μm): 5.2 fold | Fold Activation PPAR gamma, MEAN (PPARγ; 30 μm): 14.4 fold | Fold Activation PPAR gamma, MEAN (PPARγ; 50 μm): 17.6 fold | Fold Activation PPAR gamma, MEAN (PPARγ; 100 μm): 15.2 fold | toxic effect in animal models (animal models [5]): no toxic effect | genotoxicity [6]: not genotoxic | Fold Activation PPAR alpha, MEAN (PPARα; 0.3 μm): 1.4 fold | Fold Activation PPAR alpha (PPARα; 0.3 μm): 0.7 fold and 0.8 fold and 0.6 fold and 0.5 fold | Fold Activation PPAR alpha, MEAN (PPARα; 1 μm): 0.7 fold | Fold Activation PPAR alpha, MEAN (PPARα; 3 μm): 0.8 fold | Fold Activation PPAR alpha (PPARα; 3 μm): 0.6 fold and 0.7 fold and 1.0 fold and 1.1 fold and 0.8 fold | Fold Activation PPAR alpha, MEAN (PPARα; 10 μm): 1.2 fold | Fold Activation PPAR alpha, MEAN (PPARα; 30 μm): 4.9 fold | Fold Activation PPAR alpha, MEAN (PPARα; 50 μm): 8.0 fold | Fold Activation PPAR alpha, MEAN (PPARα; 100 μm): 6.9 fold | balance of stimulation of PPAR-alpha and -gamma receptors (PPARα): well-balanced stimulation | balance of stimulation of PPAR-alpha and -gamma receptors (PPARα; listed as EMD 336340): balanced activity | phototoxicity [7]: no phototoxic | skin whitening activity [8]: extraordinary skin whitening activity
